From US10780174B2, “Lipid-linked prodrugs” (The University of British Columbia, priority 2015, dated 2020)

Key:
[1] = Particle size and polydispersity of LNP containing prodrug (dynamic light scattering); format: physicochemical; conditions: PDI in brackets; for Particle size (PDI) PC-Chol LNP: LD-DEX prodrug in PC-Chol LNP; for Particle size (PDI) [ionizable LNP]: LD-DEX prodrug in ionizable LNP
Protocol: (§1) Preparation of LNP Systems: PC-Chol LNP systems were prepared by rapidly mixing POPC, cholesterol, lipid-linked prodrug and PEG-DMPE (in molar ratio of 49/39/10/2) dissolved in ethanol with phosphate-buffered saline using a T-junction mixer. Formulations were dialyzed against phosphate-buffered saline to remove residual ethanol and to raise the pH to 7.4. PC-TO and ionizable LNP systems were prepared in the same way except that the lipid compositions for these systems are: POPC, triolein, lipid-linked prodrug and PEG-DSPE (in molar ration of 19/70/10/1), and ionizable lipid, DSPC, cholesterol, lipid-linked prodrug and PEG-DMPE (in molar ration of 40/10/38.5/10/1.5), respectively.
Characterization of LNP: Particle size was determined by dynamic light scattering using a Malvern Zetasizer Nano ZS™ (Malvern, UK) following buffer exchange into phosphate-buffered saline. Number-weighted size and distribution data was used. Lipid concentrations were determined by measuring total cholesterol using the Cholesterol E enzymatic assay kit from Wako Chemicals USA™ (Richmond, Va.). The morphology of LNP formulations containing LD-DEX was analyzed by cryogenic-transmission electron microscopy (cryoTEM) as described previously [Leung et al. (2012)].

[2] = Prodrug incorporation (entrapment) in lipid nanoparticles, UHPLC; format: physicochemical; conditions: for % Entrapment PC-Chol LNP: LD-DEX prodrug in PC-Chol LNP; for % Entrapment [ionizable LNP]: LD-DEX prodrug in ionizable LNP
Protocol: as §1
(§2) Quantitation of prodrugs by HPLC: LD-DEX/DTX were quantified by ultra high-pressure liquid chromatography (UHPLC) using a Waters Acquity™ UPLC system equipped with a photodiode array detector (PDA) and evaporative light scattering (ELS) detector; Empower™ data acquisition software version 3.0 was used (Waters™, USA). Separations were performed using a Waters Acquity™ BEH C18 column (1.7 μm, 2.1×100 mm) at a flow rate of 0.5 ml/min, with mobile phases A and B consisting of methanol/10 mM ammonium bicarbonate (80/20% v/v) and methanol/acetonitrile (80/20% v/v), respectively. The mobile phases were delivered at a programmed linear gradient (45%-80% B in 1 min then to 99% B at 2 min) at a column temperature of 55° C. The analyte was measured by PDA (at a wavelength of 239 nm) and ELS detector against calibration standard curves. For the analysis of LD-DEX/DTX breakdown to active compound, linear gradients of 20/80% to 100/0% (acetonitrile/water, v/v) over 7 min were used.

[3] = In vitro degradation of lipid-linked prodrugs in LNP, mouse plasma; format: in vitro ADME; conditions: LNP; for prodrug cleavage/degradation after 1 h in plasma: 37° C., mouse plasma
Protocol: as §2
To determine the biodegradability of the dexamethasone or docetaxel prodrugs (LD-DEX/DTX), 1 mg/mL LNP was incubated in mouse plasma (Cedarlane™, Burlington, Ontario) or PBS supplemented with 10 U of purified esterase (Sigma-Aldrich™, St. […] Post incubation, four volumes of chloroform/methanol (2:1) was added and the mixture was vortex mixed. Samples were centrifuged at 13,000 g for 5 minutes and the upper phase was discarded. The remaining organic phase was dried down under vacuum and the resulting lipid extract was dissolved in methanol/acetonitrile (1:1). Quantity of parent LD-DEX/DTX compound was determined by ultra high pressure liquid chromatography on a Waters Acquity™ H-Class UPLC System™ equipped with a BEH C18 column and a photodiode array detector.

[4] = test system: immunostimulatory effects of LNP-CpG (plasma cytokines); assay: In vivo immune suppression by LD-DEX prodrugs, LNP-CpG model; parameters: species or system C57Bl/6 mice; conditions: mice, i.v., 10 mg/kg of CpG, 2 h post injection
Protocol: 6-8 Weeks old female C57Bl/6 mice (Charles River Laboratories™, Wilmington, Mass.) were injected intravenously with lipid nanoparticles containing CpG DNA oligonucleotides (10 mg/kg), mRNA (3 mg/kg) or plasmid DNA (pDNA) (1 mg/kg). Animals were euthanized 2 hours post-injection and blood was collected via intracardiac or saphenous sampling. Plasma was separated from whole blood by centrifugation and analyzed for proinflammatory cytokines using the Mesoscale Proinflammatory Multiplex™ kit (Rockville, Md.) according to manufacturer's instruction. All procedures were approved by the Animal Care Committee at the University of British Columbia and were performed in accordance with guidelines established by the Canadian Council on Animal Care.

[5] = test system: IL1β expression in RAW 264.7 mouse macrophage cells; assay: In vitro immune suppression, LPS-treated RAW 264.7 cells, IL1β qRT-PCR; format: cell-based; conditions: 2 ng/mL LPS, 4 h
Protocol: RAW 264.7 mouse macrophage cells were seeded at 250,000 cells per mL on 12-well plates and incubated at 37° C. overnight. Lipopolysaccharide (LPS) was dissolved in phosphate buffered saline at a concentration of 2 μg/ml. Cells were treated with lipid nanoparticles containing LD-DEX prodrugs and 2 ng/ml of LPS for 4 hours. This LPS concentration was chosen due to its ability to increase IL1β expression approximately 1000 times as compared to untreated cells. At the end of the incubation period, culture medium was aspirated and cellular RNA was extracted using the Purelink RNA™ extraction kit according to manufacturer's protocol (Life Technologies™, Burlington, ON). The concentration of extracted RNA was determined using a Nanodrop Lite™ (Thermo Fisher™). 1 μg of RNA was converted to cDNA using the High Capacity cDNA Reverse Transcription kit (Life Technologies™, Burlington, ON). In order to validate the sample preparation, a no template control and a negative reverse transcriptase control were included. The cDNA was then quantified using comparative real-time qPCR where the Ct (threshold cycle) values are converted to relative quantity using the 2-ΔΔCT method. The primer-probe sets were designed to bind to cDNA of Interleukin-1β(IL1β). Hypoxanthine-guanine phosphoribosyltransferase (HPRT) was chosen as the endogenous normalizer gene, which is known to maintain consistent levels with varying treatments.

[6] = In vitro dissociation of lipid-linked prodrugs from LNP in human plasma; format: in vitro ADME; conditions: human plasma over 24 h, 37° C., PC-Chol LNP or ionizable LNP
Protocol: LNP were incubated for 0, 3, 5 and 24 h at 37° C. in 400 μL of sterile human plasma (Cedarlane™, Burlington, Ontario) at a final lipid concentration of 1.2 mM. At the various time-points, samples were loaded onto a 1.5×27 cm Sepharose CL-4B column (Sigma-Aldrich™, St. Louis, Mo.). 30×2 mL fractions were collected. Three volumes of methanol/acetonitrile (1:1) were added to each fraction and analyzed by UHPLC to determine the residual LD-DEX/DTX as described above.

OVCAR3 cells = assay: In vitro growth inhibition by LD-DTX prodrugs, cell viability assay; format: cell-based; conditions: Homo sapiens, OVCAR-3, 48 h, Ovcar3 cells
Protocol: OVCAR3 cells were obtained from ATCC (Manassas, Va.). Cells were seeded at 12,000 cells per well on 96-well plates and treated with free docetaxel, prodrugs, lipid nanoparticle formulations with or without prodrugs at 0 to 15 μM of docetaxel for 48 h. Cell viability was determined by a colorimetric assay, based on the tetrazolium salt MIT (3-(4,5-dimethylthiazol-2-yl)-2,5-diphenyltetrazolium bromide), as described previously [Mossman 1983].

[7] = test system: purified porcine esterase; assay: In vitro degradation of lipid-linked prodrugs in LNP, purified esterase in PBS; conditions: LNP, 24 h incubation

Structure (SMILES)	Particle size (PDI) PC-Chol LNP [1]	Particle size (PDI) [ionizable LNP] [1]	% Entrapment PC-Chol LNP [2] [%]	% Entrapment [ionizable LNP] [2]	prodrug cleavage/degradation after 1 h in plasma [3]	plasma cytokine (TNFα, IL-6 and IL-10) levels versus control LNP-CpG [4]	IL1β expression versus control LNP without prodrug [5]	release of active drug (UPLC chromatogram) in mouse plasma ([3]; 24 h incubation)	prodrug dissociation rate from LNP [6]	prodrug dissociation rate from LNP ([6]; listed as LD18)	IC50 (OVCAR3 cells; Free drugs) [nM]	IC50 (OVCAR3 cells; PC-Chol LNP) [nM]	IC50 (OVCAR3 cells; PC-TO LNP) [nM]	IC50 (OVCAR3 cells; ionizable LNP) [nM]	release of active drug (UPLC chromatogram) in purified esterase [7]
CCCCCCCC/C=C\CCCCCCCCOC(=O)CCC(=O)OCC(=O)[C@@]1(O)[C@H](C)C[C@H]2[C@@H]3CCC4=CC(=O)C=C[C@]4(C)[C@@]3(F)[C@@H](O)C[C@@]21C [LD13-DEX, oleyl 2-((8S,9R,10S,11S,13S,14S,16R,17R)-9-fluoro-11,17-dihydroxy-10,13,16-trimethyl-3-oxo-6,7,8,9,10,11,12,13,14,15,16,17-dodecahydro-3H-cyclopenta[a]phenanthren-17-yl)-2-oxoethyl succinate]	61 (0.03) nm	[49 (0.07)] nm	100	[96] %	partially degraded	able to suppress plasma cytokine	able to reduce IL1β expression	–	–	–	–	–	–	–	–
CCCCCCCCCCCCCCCCOC(=O)CCC(=O)OCC(=O)[C@@]1(O)[C@H](C)C[C@H]2[C@@H]3CCC4=CC(=O)C=C[C@]4(C)[C@@]3(F)[C@@H](O)C[C@@]21C [LD14-DEX, palmityl 2-((8S,9R,10S,11S,13S,14S,16R,17R)-9-fluoro-11,17-dihydroxy-10,13,16-trimethyl-3-oxo-6,7,8,9,10,11,12,13,14,15,16,17-dodecahydro-3H-cyclopenta[a]phenanthren-17-yl)-2-oxoethyl succinate]	67 (0.05) nm	[47 (0.06)] nm	100	[95] %	partially degraded	able to suppress plasma cytokine	able to reduce IL1β expression	–	–	–	–	–	–	–	–
CCCCCCCCCCCCCC(=O)OCC(COC(=O)CCC(=O)OCC(=O)[C@@]1(O)[C@H](C)C[C@H]2[C@@H]3CCC4=CC(=O)C=C[C@]4(C)[C@@]3(F)[C@@H](O)C[C@@]21C)OC(=O)CCCCCCCCCCCCC (stereo partly drawn) [LD17-DEX, 2,3-dimyristroylpropyl (2-((8S,9R,10S,11S,13S,14S,16R,17R)-9-fluoro-11,17-dihydroxy-10,13,16-trimethyl-3-oxo-6,7,8,9,10,11,12,13,14,15,16,17-dodecahydro-3H-cyclopenta[a]phenanthren-17-yl)-2-oxoethyl) succinate]	–	[48 (0.06)] nm	–	[89] %	not susceptible to degradation	able to suppress plasma cytokine	able to reduce IL1β expression	–	–	–	–	–	–	–	–
CCCCCCCC/C=C\CCCCCCCCOC(=O)CCC(=O)O[C@@H](C(=O)O[C@H]1C[C@@]2(O)[C@@H](OC(=O)c3ccccc3)[C@@H]3[C@]4(OC(C)=O)CO[C@@H]4C[C@H](O)[C@@]3(C)C(=O)[C@H](O)C(=C1C)C2(C)C)[C@@H](NC(=O)OC(C)(C)C)c1ccccc1 [LD18-DTX, (2R,3S)-1-(((2aR,4S,4aS,6R,9S,11S,12S,12aR,12bS)-12b-acetoxy-12-(benzoyloxy)-4,6,11-trihydroxy-4a,8,13,13-tetramethyl-5-oxo-2a,3,4,4a,5,6,9,10,11,12,12a,12b-dodecahydro-1H-7,11-methanocyclodeca[3,4]benzo[1,2-b]oxet-9-yl)oxy)-3-((tert-butoxycarbonyl)amino)-1-oxo-3-phenylpropan-2-yl(Z)-octadec-9-en-1-ylsuccinate]	–	–	–	–	largely not degraded	–	–	active docetaxel (DTX) was observed	dissociated at a faster rate from lipid nanoparticles than LD22-DTX	dissociates from LNP faster than LD22	23.9	37.3	131	64	active docetaxel (DTX) was observed
